Earlier results in US20260345798A1, “COMPOUNDS AND METHODS OF USE THEREOF” (Virginia Commonwealth University, priority 2023, published 2026).
pKd: −log10 of the molar value.

Tests used:
[1] = test system: second PDZ2 domain of MDA-9/Syntenin; conditions: cited from earlier work
[2] = test system: PDZ domains in other sequence-similar proteins; conditions: cited from earlier work
MDA-9/Syntenin = target: T1, MDA-9/Syntenin (Homo sapiens, UniProt O00560); conditions: literature comparison; cited from earlier work
T1 sequence (O00560 1-298): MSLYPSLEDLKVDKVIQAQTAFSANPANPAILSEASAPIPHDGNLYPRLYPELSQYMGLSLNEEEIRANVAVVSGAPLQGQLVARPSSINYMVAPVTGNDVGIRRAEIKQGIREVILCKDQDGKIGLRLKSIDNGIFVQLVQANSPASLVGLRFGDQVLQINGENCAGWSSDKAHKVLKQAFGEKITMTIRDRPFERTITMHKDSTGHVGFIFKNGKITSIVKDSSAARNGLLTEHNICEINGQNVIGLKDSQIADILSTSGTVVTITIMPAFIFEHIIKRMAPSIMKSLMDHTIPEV

cancer invasion = conditions: in vitro and in vivo, multiple experimental animal models; cited from earlier work
[3] = test system: non-transformed normal or transformed cells; conditions: other cancer contexts; cited from earlier work
T cells = conditions: cited from earlier work

Structure (SMILES): Cc1cc(NC(=O)c2nc3nc4c(c(=O)n3[nH]2)CCC4)c(C)cc1NC(=O)CCc1nnc(-c2ccccc2)o1 [PDZ1i]
- binding to PDZ2 domain of MDA-9/Syntenin [1]: without appreciable binding
- binding to PDZ domains in other sequence-similar proteins [2]: without appreciable binding
- pKd (MDA-9/Syntenin): 4.64
- blocking of cancer invasion (cancer invasion): effectively blocks cancer invasion
- detrimental effect on cells [3]: not detrimental
- T cell infiltration into the tumor environment (T cells): causes T cell infiltration into the tumor environment
